Target: human PD-L1 (Homo sapiens (Human), UniProt Q9NZQ7)
Test: T cell activation luciferase reporter cell culture system (T Cell Activation Assay)
Type: cell-based
Conditions: luciferase reporter assay; PD-L1 aAPC/CHO-K1 cells with PD-1 effector Jurkat T cells

Chain of human PD-L1 (Q9NZQ7 19-290): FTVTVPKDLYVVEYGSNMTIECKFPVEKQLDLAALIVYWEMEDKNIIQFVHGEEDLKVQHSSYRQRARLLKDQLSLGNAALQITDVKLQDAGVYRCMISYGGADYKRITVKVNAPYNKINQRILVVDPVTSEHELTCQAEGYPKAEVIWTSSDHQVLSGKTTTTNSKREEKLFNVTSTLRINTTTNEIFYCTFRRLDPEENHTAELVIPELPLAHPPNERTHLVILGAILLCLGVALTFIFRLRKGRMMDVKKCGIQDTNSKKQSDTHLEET

Row | EC50 | Compound
1 | 143 nM | COc1nc(-c2cccc(-c3ccnc(-c4cc5c(=O)n(C)c(CN6CC(C)(O)C6)nn5c4)c3Cl)c2Cl)ccc1CN[C@H]1CC[C@H](O)CC1 [Example 234, 6-(3-Chloro-4-(2-chloro-3-(5-((((1r,4r)-4-hydroxycyclohexyl)amino)methyl)-6-methoxypyridin-2-yl)phenyl)pyridin-2-yl)-2-((3-hydroxy-3-methylazetidin-1-yl)methyl)-3-methylpyrrolo[2,1-f][1,2,4]triazin-4(3H)-one]
2 | 65.1 nM | COc1nc(-c2cccc(-c3ccnc(-c4ccc5c(CNC[C@@H]6CCO6)nn(C)c5c4)c3Cl)c2Cl)ccc1CNC[C@@H]1CCC(=O)N1 [Example 235, (S)-5-((((6-(2-Chloro-3-(3-chloro-2-(1-methyl-3-(((((S)-oxetan-2-yl)methyl)amino)methyl)-1H-indazol-6-yl)pyridin-4-yl)phenyl)-2-methoxypyridin-3-yl)methyl)amino)methyl)pyrrolidin-2-one]
3 | 53.9 nM | COc1cc(-c2nccc(-c3cccc(-c4ccc5c(OC)c(CNC[C@@H]6CCC(=O)N6)cc(Cl)c5n4)c3Cl)c2Cl)cc(F)c1CNC[C@@H]1CCC(=O)N1 [Example 236, (S)-5-((((8-Chloro-2-(2-chloro-3-(3-chloro-2-(3-fluoro-5-methoxy-4-(((((S)-5-oxopyrrolidin-2-yl)methyl)amino)methyl)phenyl)pyridin-4-yl)phenyl)-5-methoxyquinolin-6-yl)methyl)amino)methyl)pyrrolidin-2-one]
4 | 22.1 nM | COc1cc(-c2nccc(-c3cccc(-c4ccc(CNC[C@@H]5CCC(=O)N5)c(OC)n4)c3Cl)c2Cl)ccc1CNC1CC2(C1)CN(C(C)=O)C2 [Example 237, (S)-5-((((6-(3-(2-(4-(((2-acetyl-2-azaspiro[3.3]heptan-6-yl)amino)methyl)-3-methoxyphenyl)-3-chloropyridin-4-yl)-2-chlorophenyl)-2-methoxypyridin-3-yl)methyl)amino)methyl)pyrrolidin-2-one]
5 | 128 nM | COc1cc(-c2nccc(-c3cccc(-c4ccc5c(OC)c(CNCCO)cc(Cl)c5n4)c3Cl)c2Cl)ccc1CNC[C@@H]1CCC(=O)N1 [Example 238, (S)-5-(((4-(3-chloro-4-(2-chloro-3-(8-chloro-6-(((2-hydroxyethyl)amino)methyl)-5-methoxyquinolin-2-yl)phenyl)pyridin-2-yl)-2-methoxybenzyl)amino)methyl)pyrrolidin-2-one]
6 | 29.1 nM | CNCc1ccc(-c2nccc(-c3cccc(-c4ccc(CNC5CCN(C(C)=O)CC5)c(OC)n4)c3Cl)c2Cl)cc1OC [Example 240, 1-(4-(((6-(2-chloro-3-(3-chloro-2-(3-methoxy-4-((methylamino)methyl)phenyl)pyridin-4-yl)phenyl)-2-methoxypyridin-3-yl)methyl)amino)piperidin-1-yl)ethan-1-one]
7 | 437 nM | COc1cc(-c2cccc(-c3ccnc(-c4ccc5c(c4)CN(CCNC[C@@H]4CCC(=O)N4)C5=O)c3Cl)c2Cl)cc(F)c1CNC[C@@H]1CCC(=O)N1 [Example 242, 5-(3-Chloro-4-(2-chloro-3′-fluoro-5′-methoxy-4′-(((((S)-5-oxopyrrolidin-2-yl)methyl)amino)methyl)-[1,1′-biphenyl]-3-yl)pyridin-2-yl)-2-(2-((((S)-5-oxopyrrolidin-2-yl)methyl)amino)ethyl)isoindolin-1-one]
8 | 104 nM | COc1cc(-c2nccc(-c3cccc(-c4ccc(CNC5CCN(C(C)=O)CC5)c(OC)n4)c3Cl)c2Cl)ccc1CN1CC2(CC(C(=O)O)C2)C1 [Example 243, 2-(4-(4-(3-(5-(((1-acetylpiperidin-4-yl)amino)methyl)-6-methoxypyridin-2-yl)-2-chlorophenyl)-3-chloropyridin-2-yl)-2-methoxybenzyl)-2-azaspiro[3.3]heptane-6-carboxylic acid]
9 | 25.2 nM | COc1cc(-c2nccc(-c3cccc(-c4ccc(CNC5CCN(C(C)=O)CC5)c(OC)n4)c3Cl)c2Cl)ccc1CN1CC2(CNC(=O)C2)C1 [Example 244, 2-(4-(4-(3-(5-(((1-acetylpiperidin-4-yl)amino)methyl)-6-methoxypyridin-2-yl)-2-chlorophenyl)-3-chloropyridin-2-yl)-2-methoxybenzyl)-2,6-diazaspiro[3.4]octan-7-one]
10 | 187 nM | COc1cc(-c2nccc(-c3cccc(-c4ccc(CNC5CCN(C(C)=O)CC5)c(OC)n4)c3Cl)c2Cl)ccc1CN1CC[C@H](C(=O)OC(C)C)C1 [Example 245, Isopropyl (S)-1-(4-(4-(3-(5-(((1-acetylpiperidin-4-yl)amino)methyl)-6-methoxypyridin-2-yl)-2-chlorophenyl)-3-chloropyridin-2-yl)-2-methoxybenzyl)pyrrolidine-3-carboxylate]
11 | 101 nM | COc1cc(-c2nccc(-c3cccc(-c4ccc5c(CNC6CCN(C(C)=O)CC6)cn(C)c5n4)c3Cl)c2Cl)ccc1CNC1CCN(C(C)=O)CC1 [Example 246, 1-(4-((4-(4-(3-(3-(((1-acetylpiperidin-4-yl)amino)methyl)-1-methyl-1H-pyrrolo[2,3-b]pyridin-6-yl)-2-chlorophenyl)-3-chloropyridin-2-yl)-2-methoxybenzyl)amino)piperidin-1-yl)ethan-1-one]
12 | 596 nM | COc1nc(-c2ccnc(-c3cccc4c3CC[C@@H]4Oc3nc(OC)c(CN4CC5(C4)CN(C(C)=O)C5)cc3C(F)(F)F)c2Cl)ccc1CN1CC2(C1)CN(C(C)=O)C2 [Example 248, (S)-1-(6-((6-((4-(5-((6-Acetyl-2,6-diazaspiro[3.3]heptan-2-yl)methyl)-3′-chloro-6-methoxy-[2,4′-bipyridin]-2′-yl)-2,3-dihydro-1H-inden-1-yl)oxy)-2-methoxy-5-(trifluoromethyl)pyridin-3-yl)methyl)-2,6-diazaspiro[3.3]heptan-2-yl)ethan-1-one]
13 | 81.7 nM | COc1cc(-c2nccc(-c3cccc(-c4ccc(CN5CC6(C5)CN(C(C)=O)C6)c(OC)n4)c3Cl)c2Cl)cc2c1CN(CCCF)CC2 [Example 249, 1-(6-((6-(2-Chloro-3-(3-chloro-2-(2-(3-fluoropropyl)-8-methoxy-1,2,3,4-tetrahydroisoquinolin-6-yl)pyridin-4-yl)phenyl)-2-methoxypyridin-3-yl)methyl)-2,6-diazaspiro[3.3]heptan-2-yl)ethan-1-one]
14 | 31 nM | COc1cc(-c2nccc(-c3cccc(-c4ccc(CN5CC6(CNC(=O)C6)C5)c(OC)n4)c3Cl)c2Cl)cc2c1CN(CCCF)CC2 [Example 250, 2-((6-(2-Chloro-3-(3-chloro-2-(2-(3-fluoropropyl)-8-methoxy-1,2,3,4-tetrahydroisoquinolin-6-yl)pyridin-4-yl)phenyl)-2-methoxypyridin-3-yl)methyl)-2,6-diazaspiro[3.4]octan-7-one]
15 | 117 nM | COc1cc(-c2nccc(-c3cccc(-c4ccc(CNC5CC6(COC6)C5)c(OC)n4)c3Cl)c2Cl)cc2c1CN(CCCF)CC2 [Example 251, N-((6-(2-Chloro-3-(3-chloro-2-(2-(3-fluoropropyl)-8-methoxy-1,2,3,4-tetrahydroisoquinolin-6-yl)pyridin-4-yl)phenyl)-2-methoxypyridin-3-yl)methyl)-2-oxaspiro[3.3]heptan-6-amine]
16 | 54 nM | COc1cc(-c2nccc(-c3cccc(-c4ccc(CNCC5(CO)CC5)c(OC)n4)c3Cl)c2Cl)cc2c1CN(CCCF)CC2 [Example 252, (1-((((6-(2-Chloro-3-(3-chloro-2-(2-(3-fluoropropyl)-8-methoxy-1,2,3,4-tetrahydroisoquinolin-6-yl)pyridin-4-yl)phenyl)-2-methoxypyridin-3-yl)methyl)amino)methyl)cyclopropyl)methanol]
